Test results: paper PMC12736120, “First-in-Human Phase I Clinical Trial of SLC-391, a Novel and Selective AXL Inhibitor, in Patients with Advanced Solid Tumours” (Pharmaceuticals, 2025)

Test: Phase I safety and tolerability (DLTs, adverse events, laboratory, ECG)
Format: in vivo
Experimental: This study employed a standard 3 + 3 dose escalation design with a starting dose of 25 mg QD. […] Dose escalation decisions took into account all available data from evaluable subjects as well as PK and the safety profile of prior dose cohorts. […] There was a minimum 5-day stagger between dosing of the first and second subjects in each dose cohort. Dose escalation decisions were made by a data review committee (DRC) composed of, at minimum, the medical monitor, at least one principal investigator, and a sponsor representative, per the study DRC Plan. Dose escalation could continue until 2 or more subjects in the same dose cohort experienced a dose-limiting toxicity (DLT). DLTs were defined as Grade 3 or 4 adverse drug reactions (ADRs), with grades as defined in the National Cancer Institute Common Toxicity Criteria for Adverse Events (NCI-CTCAE) version 5.0. […] The MTD was defined as the highest dose at which no more than 1 of 6 subjects experienced a DLT during cycle 1 of the study drug. The MTD would have been exceeded if 2 or more subjects in a dose cohort of up to 6 subjects experienced a DLT. Subjects could continue treatment until disease progression, unacceptable toxicity, death, withdrawal of consent, or loss to follow-up.
Before enrolment in the study, all patients received a detailed medical history and physical examination. Clinical laboratory evaluations included clinical chemistry, complete blood count, urinalysis, coagulation factors, and a lipid panel. Other safety assessments included vital signs, physical examination, electrocardiogram, and echocardiogram with multigated acquisition (ECHO/MUGA). Safety assessments were performed on days 1, 8, 15, and 21 of cycle 1, and on day 1 of cycles 2 to 6.

[1] = Grade 1, Overall Study (N = 35)

SMILES: Nc1ncc(-c2cnn(C3CCNCC3)c2)cc1-c1nnc(CC2CC2)o1 [SLC-391, 3-(5-[cyclopropylmethyl]-1,3,4-oxadiazol-2-yl)-5-(1-[piperidin-4-yl]-1H-pyrazol-4-yl)-pyridin-2-amine]
- TEAE: Abdominal distension [1]: 4 (11.4) n (%)
- TEAE: Abdominal pain [1]: 4 (11.4) n (%)
- TEAE: Back pain [1]: 1 (2.9) n (%)
- TEAE: Blood and lymphatic system disorders [1]: 1 (2.9) n (%)
- TEAE: Chills [1]: 6 (17.1) n (%)
- TEAE: Constipation [1]: 10 (28.6) n (%)
- TEAE: Cough [1]: 6 (17.1) n (%)
- TEAE: Decreased appetite [1]: 7 (20.0) n (%)
- TEAE: Diarrhoea [1]: 14 (40.0) n (%)
- TEAE: Dizziness [1]: 4 (11.4) n (%)
- TEAE: Dysgeusia [1]: 1 (2.9) n (%)
- TEAE: Dyspnoea [1]: 2 (5.7) n (%)
- TEAE: Fatigue [1]: 10 (28.6) n (%)
- TEAE: Gastrointestinal disorders [1]: 15 (42.9) n (%)
- TEAE: General disorders and administration site conditions [1]: 12 (34.3) n (%)
- TEAE: Haematuria [1]: 4 (11.4) n (%)
- TEAE: Headache [1]: 5 (14.3) n (%)
- TEAE: Infections and infestations [1]: 1 (2.9) n (%)
- TEAE: Investigations [1]: 7 (20.0) n (%)
- TEAE: Metabolism and nutrition disorders [1]: 5 (14.3) n (%)
- TEAE: Musculoskeletal and connective tissue disorders [1]: 7 (20.0) n (%)
- TEAE: Nausea [1]: 15 (42.9) n (%)
- TEAE: Nervous system disorders [1]: 11 (31.4) n (%)
- TEAE: Oedema peripheral [1]: 3 (8.6) n (%)
- TEAE: Psychiatric disorders [1]: 3 (8.6) n (%)
- TEAE: Pyrexia [1]: 4 (11.4) n (%)
- TEAE: Renal and urinary disorders [1]: 3 (8.6) n (%)
- TEAE: Respiratory, thoracic, and mediastinal disorders [1]: 5 (14.3) n (%)
- TEAE: Skin and subcutaneous tissue disorders [1]: 6 (17.1) n (%)
- TEAE: Vomiting [1]: 13 (37.1) n (%)
- TEAE: Weight decreased [1]: 6 (17.1) n (%)
- Any treatment-emergent adverse event (TEAE) (Grade 2, Overall BID (N = 15)): 7 (46.7) n (%)
- TEAE: Abdominal distension (Grade 2, Overall BID (N = 15)): 1 (6.7) n (%)
- TEAE: Abdominal pain (Grade 2, Overall BID (N = 15)): 0 n (%)
- TEAE: Back pain (Grade 2, Overall BID (N = 15)): 2 (13.3) n (%)
- TEAE: Blood and lymphatic system disorders (Grade 2, Overall BID (N = 15)): 0 n (%)
- TEAE: Constipation (Grade 2, Overall BID (N = 15)): 2 (13.3) n (%)
- TEAE: Cough (Grade 2, Overall BID (N = 15)): 1 (6.7) n (%)
- TEAE: Decreased appetite (Grade 2, Overall BID (N = 15)): 4 (26.7) n (%)
- TEAE: Diarrhoea (Grade 2, Overall BID (N = 15)): 2 (13.3) n (%)
- TEAE: Dysgeusia (Grade 2, Overall BID (N = 15)): 2 (13.3) n (%)
- TEAE: Dyspnoea (Grade 2, Overall BID (N = 15)): 5 (33.3) n (%)
- TEAE: Fatigue (Grade 2, Overall BID (N = 15)): 5 (33.3) n (%)
- TEAE: Gastrointestinal disorders (Grade 2, Overall BID (N = 15)): 5 (33.3) n (%)
- TEAE: General disorders and administration site conditions (Grade 2, Overall BID (N = 15)): 6 (40.0) n (%)
- TEAE: Haematuria (Grade 2, Overall BID (N = 15)): 1 (6.7) n (%)
- TEAE: Infections and infestations (Grade 2, Overall BID (N = 15)): 5 (33.3) n (%)
- TEAE: Investigations (Grade 2, Overall BID (N = 15)): 1 (6.7) n (%)
- TEAE: Metabolism and nutrition disorders (Grade 2, Overall BID (N = 15)): 5 (33.3) n (%)
- TEAE: Musculoskeletal and connective tissue disorders (Grade 2, Overall BID (N = 15)): 3 (20.0) n (%)
- TEAE: Nausea (Grade 2, Overall BID (N = 15)): 4 (26.7) n (%)
- TEAE: Nervous system disorders (Grade 2, Overall BID (N = 15)): 2 (13.3) n (%)
- TEAE: Oedema peripheral (Grade 2, Overall BID (N = 15)): 1 (6.7) n (%)
- TEAE: Psychiatric disorders (Grade 2, Overall BID (N = 15)): 2 (13.3) n (%)
- TEAE: Pyrexia (Grade 2, Overall BID (N = 15)): 0 n (%)
- TEAE: Renal and urinary disorders (Grade 2, Overall BID (N = 15)): 1 (6.7) n (%)
- TEAE: Respiratory, thoracic, and mediastinal disorders (Grade 2, Overall BID (N = 15)): 6 (40.0) n (%)
- TEAE: Skin and subcutaneous tissue disorders (Grade 2, Overall BID (N = 15)): 0 n (%)
- TEAE: Urinary tract infection (Grade 2, Overall BID (N = 15)): 3 (20.0) n (%)
- TEAE: Vascular disorders (Grade 2, Overall BID (N = 15)): 1 (6.7) n (%)
- TEAE: Vomiting (Grade 2, Overall BID (N = 15)): 1 (6.7) n (%)
- Any treatment-emergent adverse event (TEAE) (Grade 2, Overall QD (N = 20)): 12 (60.0) n (%)
- TEAE: Abdominal distension (Grade 2, Overall QD (N = 20)): 1 (5.0) n (%)
- TEAE: Abdominal pain (Grade 2, Overall QD (N = 20)): 1 (5.0) n (%)
